From ChEMBL document CHEMBL3132769, “Fragment growing to retain or alter the selectivity of anchored kinase hinge-binding fragments” (Medchemcomm, 2014)

Columns and labels:
[1] = target: MAP/microtubule affinity-regulating kinase 3 (Homo sapiens) (UniProt P27448); test: Inhibition of human full length c-TAK1 expressed in Escherichia coli cell assessed as substrate phosphorylation using fluorescence-labelled peptides as substrate at 70 uM after 90 mins by microfluidic peptide phosphorylation assay
MAP/microtubule affinity-regulating kinase 3 (Homo sapiens), sequence (P27448 whole entry, looked up, the tested form may be a part): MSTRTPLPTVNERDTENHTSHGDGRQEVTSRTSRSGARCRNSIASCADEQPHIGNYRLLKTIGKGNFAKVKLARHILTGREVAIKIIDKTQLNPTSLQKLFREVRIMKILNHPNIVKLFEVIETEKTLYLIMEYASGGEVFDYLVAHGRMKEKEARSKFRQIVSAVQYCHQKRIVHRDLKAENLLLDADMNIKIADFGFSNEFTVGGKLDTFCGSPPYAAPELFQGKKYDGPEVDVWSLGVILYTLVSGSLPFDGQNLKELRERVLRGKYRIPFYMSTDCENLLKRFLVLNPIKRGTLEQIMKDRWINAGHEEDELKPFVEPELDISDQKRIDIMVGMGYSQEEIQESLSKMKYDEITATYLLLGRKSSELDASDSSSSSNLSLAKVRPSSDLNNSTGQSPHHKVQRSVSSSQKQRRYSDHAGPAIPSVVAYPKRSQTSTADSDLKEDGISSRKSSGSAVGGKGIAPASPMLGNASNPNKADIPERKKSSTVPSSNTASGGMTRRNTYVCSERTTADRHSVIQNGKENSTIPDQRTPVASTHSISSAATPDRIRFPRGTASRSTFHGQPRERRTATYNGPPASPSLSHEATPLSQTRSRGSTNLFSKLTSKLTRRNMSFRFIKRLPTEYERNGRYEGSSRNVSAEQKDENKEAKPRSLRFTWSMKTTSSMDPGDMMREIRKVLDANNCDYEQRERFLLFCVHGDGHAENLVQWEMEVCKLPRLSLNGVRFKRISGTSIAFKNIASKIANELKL

[2] = target: Tyrosine-protein kinase HCK (Homo sapiens) (UniProt P08631); test: Inhibition of human HCK catalytic domain expressed in baculovirus assessed as substrate phosphorylation using fluorescence-labelled peptides as substrate at 70 uM after 90 mins by microfluidic peptide phosphorylation assay
Tyrosine-protein kinase HCK (Homo sapiens), sequence (P08631 2-526 limits assumed): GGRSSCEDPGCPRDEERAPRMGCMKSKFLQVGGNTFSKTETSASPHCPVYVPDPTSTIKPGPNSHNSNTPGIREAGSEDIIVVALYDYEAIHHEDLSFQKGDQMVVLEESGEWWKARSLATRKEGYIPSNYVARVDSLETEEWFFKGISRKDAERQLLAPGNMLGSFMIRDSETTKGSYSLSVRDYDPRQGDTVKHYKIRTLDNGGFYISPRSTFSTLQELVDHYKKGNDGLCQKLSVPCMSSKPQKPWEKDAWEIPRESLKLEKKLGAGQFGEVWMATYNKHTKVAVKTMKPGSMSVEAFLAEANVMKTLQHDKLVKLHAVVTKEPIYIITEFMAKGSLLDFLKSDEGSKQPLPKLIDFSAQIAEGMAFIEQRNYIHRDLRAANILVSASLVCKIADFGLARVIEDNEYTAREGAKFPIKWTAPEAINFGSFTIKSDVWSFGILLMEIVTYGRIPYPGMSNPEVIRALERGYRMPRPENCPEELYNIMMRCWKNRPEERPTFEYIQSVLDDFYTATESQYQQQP

[3] = target: T1, Serine/threonine-protein kinase DCLK2 (Homo sapiens) (UniProt Q8N568); test: Inhibition of human full length DCAMKL2 expressed in baculovirus assessed as substrate phosphorylation using fluorescence-labelled peptides as substrate at 420 uM after 90 mins by microfluidic peptide phosphorylation assay
T1 sequence (whole entry): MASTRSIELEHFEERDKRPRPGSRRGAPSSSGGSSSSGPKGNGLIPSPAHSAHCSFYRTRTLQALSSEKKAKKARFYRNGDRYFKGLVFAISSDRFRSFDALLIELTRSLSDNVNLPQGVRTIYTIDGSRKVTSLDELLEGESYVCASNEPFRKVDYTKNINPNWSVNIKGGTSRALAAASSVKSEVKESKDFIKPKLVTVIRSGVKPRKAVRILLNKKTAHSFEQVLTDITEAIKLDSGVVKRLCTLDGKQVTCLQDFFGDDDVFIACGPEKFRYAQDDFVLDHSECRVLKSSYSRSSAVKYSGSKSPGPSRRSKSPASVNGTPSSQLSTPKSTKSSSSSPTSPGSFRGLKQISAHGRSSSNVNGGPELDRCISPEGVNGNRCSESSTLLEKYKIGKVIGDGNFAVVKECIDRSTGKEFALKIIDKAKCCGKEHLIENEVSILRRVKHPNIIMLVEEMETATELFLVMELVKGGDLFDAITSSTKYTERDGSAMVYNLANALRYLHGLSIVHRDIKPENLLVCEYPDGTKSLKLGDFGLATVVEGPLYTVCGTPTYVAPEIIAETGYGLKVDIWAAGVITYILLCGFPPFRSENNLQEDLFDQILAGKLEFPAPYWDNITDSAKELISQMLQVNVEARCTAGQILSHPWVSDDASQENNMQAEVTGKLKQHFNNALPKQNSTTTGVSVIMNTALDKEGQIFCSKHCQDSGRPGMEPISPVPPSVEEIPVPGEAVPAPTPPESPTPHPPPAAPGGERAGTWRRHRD

[4] = target: Protein kinase C delta type (Homo sapiens) (UniProt Q05655); test: Inhibition of human truncated PKC delta expressed in baculovirus assessed as substrate phosphorylation using fluorescence-labelled peptides as substrate at 1000 uM after 90 mins by microfluidic peptide phosphorylation assay
Protein kinase C delta type (Homo sapiens), sequence (Q05655 whole entry, looked up, the tested form may be a part, canonical isoform): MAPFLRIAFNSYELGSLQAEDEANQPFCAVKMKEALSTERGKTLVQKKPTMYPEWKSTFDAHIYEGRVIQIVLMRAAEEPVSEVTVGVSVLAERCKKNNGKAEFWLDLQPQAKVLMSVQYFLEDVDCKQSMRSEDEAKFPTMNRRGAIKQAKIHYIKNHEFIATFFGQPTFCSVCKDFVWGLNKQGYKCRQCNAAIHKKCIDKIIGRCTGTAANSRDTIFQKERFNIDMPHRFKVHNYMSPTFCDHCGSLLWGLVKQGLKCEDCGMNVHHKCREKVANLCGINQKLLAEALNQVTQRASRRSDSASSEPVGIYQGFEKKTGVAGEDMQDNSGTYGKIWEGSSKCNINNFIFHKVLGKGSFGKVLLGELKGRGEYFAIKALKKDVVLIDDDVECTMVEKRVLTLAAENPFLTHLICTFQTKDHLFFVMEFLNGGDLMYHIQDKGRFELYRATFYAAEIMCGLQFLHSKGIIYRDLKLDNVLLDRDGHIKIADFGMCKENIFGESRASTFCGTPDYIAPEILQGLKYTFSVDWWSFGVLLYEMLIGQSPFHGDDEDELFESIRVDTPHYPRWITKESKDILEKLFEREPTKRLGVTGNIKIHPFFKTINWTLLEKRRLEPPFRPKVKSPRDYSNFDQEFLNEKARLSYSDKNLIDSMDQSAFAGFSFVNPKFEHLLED

[5] = target: Casein kinase I isoform alpha (Homo sapiens) (UniProt P48729); test: Inhibition of human full length CSNK1A1 expressed in baculovirus assessed as substrate phosphorylation using fluorescence-labelled peptides as substrate at 1000 uM after 90 mins by microfluidic peptide phosphorylation assay
Casein kinase I isoform alpha (Homo sapiens), sequence (P48729 2-337 limits assumed): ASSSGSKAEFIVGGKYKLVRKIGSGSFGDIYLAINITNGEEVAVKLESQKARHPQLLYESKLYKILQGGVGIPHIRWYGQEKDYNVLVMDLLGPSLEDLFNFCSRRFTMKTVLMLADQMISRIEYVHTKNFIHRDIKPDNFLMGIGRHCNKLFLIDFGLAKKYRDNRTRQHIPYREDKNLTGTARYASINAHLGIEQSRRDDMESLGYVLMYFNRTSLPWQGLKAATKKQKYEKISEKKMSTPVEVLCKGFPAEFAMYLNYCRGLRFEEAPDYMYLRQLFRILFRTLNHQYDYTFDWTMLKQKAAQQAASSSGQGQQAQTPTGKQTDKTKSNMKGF

[6] = target: T2, Inhibitor of nuclear factor kappa-B kinase subunit beta (Homo sapiens) (UniProt O14920); test: Inhibition of human full length IKK beta expressed in baculovirus assessed as substrate phosphorylation using fluorescence-labelled peptides as substrate at […] after 90 mins by microfluidic peptide phosphorylation assay
T2 sequence (whole entry): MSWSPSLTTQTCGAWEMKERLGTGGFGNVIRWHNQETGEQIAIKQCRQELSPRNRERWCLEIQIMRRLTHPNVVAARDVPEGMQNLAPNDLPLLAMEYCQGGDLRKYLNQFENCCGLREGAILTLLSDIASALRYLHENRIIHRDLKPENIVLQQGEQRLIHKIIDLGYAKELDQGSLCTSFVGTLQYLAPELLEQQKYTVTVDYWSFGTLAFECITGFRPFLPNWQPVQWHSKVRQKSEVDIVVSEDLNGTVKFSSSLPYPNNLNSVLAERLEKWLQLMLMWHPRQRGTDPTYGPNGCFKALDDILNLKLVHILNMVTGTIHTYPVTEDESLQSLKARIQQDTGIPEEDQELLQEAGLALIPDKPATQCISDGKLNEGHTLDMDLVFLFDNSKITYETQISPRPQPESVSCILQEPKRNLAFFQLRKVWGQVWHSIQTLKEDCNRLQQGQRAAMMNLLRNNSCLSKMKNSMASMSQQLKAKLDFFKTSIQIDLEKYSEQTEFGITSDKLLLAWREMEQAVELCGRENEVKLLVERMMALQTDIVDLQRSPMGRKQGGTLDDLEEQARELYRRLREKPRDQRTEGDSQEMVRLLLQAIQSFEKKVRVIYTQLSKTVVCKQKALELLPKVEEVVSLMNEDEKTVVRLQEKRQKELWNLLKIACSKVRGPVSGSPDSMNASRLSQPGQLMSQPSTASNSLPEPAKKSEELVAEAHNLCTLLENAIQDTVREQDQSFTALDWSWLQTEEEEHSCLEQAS

[7] = target: T3, Serine/threonine-protein kinase Sgk1 (Homo sapiens) (UniProt O00141); details: 0.1 uM
T3 sequence (whole entry): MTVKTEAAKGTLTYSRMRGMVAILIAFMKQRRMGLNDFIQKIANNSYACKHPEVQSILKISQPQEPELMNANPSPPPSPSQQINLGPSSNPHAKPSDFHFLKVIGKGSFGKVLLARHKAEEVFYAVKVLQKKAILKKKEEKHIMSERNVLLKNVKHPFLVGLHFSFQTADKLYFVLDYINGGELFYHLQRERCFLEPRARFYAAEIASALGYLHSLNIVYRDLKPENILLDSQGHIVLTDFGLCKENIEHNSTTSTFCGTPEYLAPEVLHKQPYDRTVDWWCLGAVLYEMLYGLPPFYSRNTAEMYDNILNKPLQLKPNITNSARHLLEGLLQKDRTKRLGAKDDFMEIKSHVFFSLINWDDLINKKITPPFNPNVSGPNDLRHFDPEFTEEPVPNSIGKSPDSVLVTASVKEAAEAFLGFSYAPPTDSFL
Description: Inhibition of human truncated SGK1 expressed in baculovirus assessed as substrate phosphorylation using fluorescence-labelled peptides as substrate at 0.1 uM after 90 mins by microfluidic peptide phosphorylation assay

Structure (SMILES): CNCc1ccc(-c2ncnc3[nH]cnc23)cc1
- inhibition [1]: 6.5%
- inhibition [2]: 18.5%

Structure (SMILES): c1nc(N2CCOCC2)c2nc[nH]c2n1
- inhibition [3]: 41.5%

Structure (SMILES): c1cnc2[nH]ccc2c1
- inhibition [4]: 45.5%
- inhibition [5]: 73.5%

Structure (SMILES): COC(=O)c1cnc(Nc2cnc(C#N)cn2)cc1NCC1CCNCC1
- inhibition [6]: 2%

Structure (SMILES): C[C@H](CN(C)C)Oc1nc(Nc2cc3cccc(Cl)c3cn2)cnc1C#N
- inhibition [7]: 0%
